Results from US6169181A, “Compounds useful to treat retroviral infections” (Pharmacia & Upjohn Company, priority 1998, dated 2001).
pKi: −log10 of the molar value. Where “and” joins values, the source holds several entries; their conditions need not be identical. Equal entries are not always repeated.

Experiments:
HIV-1 protease = HIV-1 protease (Human immunodeficiency virus type 1 group M subtype B, UniProt P04585); assay: biochemical; details: Table II, enzyme HIV-1
Method in brief: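 A substrate biotinylated at the N-terminal arginine and FITC-labelled at the C-terminal lysine was incubated with HIV-1 protease (10 μl of 0.1 μM) and compound for 1 h in the dark at room temperature. Buffer was 0.1 M sodium acetate pH 5.5, 1.0 M NaCl, 0.05% NP-40. Labelled product was separated from substrate using streptavidin beads and filtration, and the fluorescence gave percent inhibition.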

[1] = target: T1, single chain tethered (tandem) HIV protease (HIV-1 M:B_HXB2R, UniProt P04585); assay: Tandem HIV protease assay; type: biochemical; details: Table II, enzyme HIV1TANDEM; for pKi: read-out: FITC KI
T1 construct: purified enzyme, FITC/biotin substrate assay
Description: In the enzyme inhibition assay described above, the sensitivity of Ki value determination is in part limited by the ability to continue to lower the enzyme concentration for compounds with high binding affinity. To prevent de-dimerization at low enzyme concentration, a tandemly linked enzyme is prepared in which the two monomers are covalently linked by an appropriate stretch of amino acid residues. Using the latter enzyme, the sensitivity of the inhibition assay is improved since much lower enzyme concentration can be utilized, as compared to the condition using the wild-type enzyme.
The starting inhibitor concentrations are determined based on preliminary enzyme inhibition screening results which estimate the expected potency of the inhibitor. Inhibitor concentrations are then prepared using the Biomek 1000 (Beckman) and the Quadra 96 (Tomtec). Substrate (biotinylated at the amino terminal arginine and fluorescently labeled with fluorescein at the carboxyl terminal lysine), inhibitor and the tandem enzyme are allowed to react in solution at pH 5.5 (buffers identical to those used with the native dimeric enzyme) in the dark for 96 hours. Streptavidin coated polystyrene beads are added to stop the reaction. The labeled cleavage product is separated from unreacted substrate via filtration. Residual fluorescence is quantitated with the Idexx SM2000 (Idexx) and the resulting data are analyzed using the NLLSF program.

CC(C)CC1(CC(C)C)CC(O)=C(C(c2cccc(NS(=O)(=O)c3cn(C)cn3)c2)C(C)(C)C)C(=O)O1 (racemic) [Example 305, N-[3-(1-[5,6-Dihydro-6,6-diisobutyl-4-hydroxy-2-oxo-2H-pyran-3-yl]-2,2-dimethylpropyl)-phenyl]-1-methyl-1H-imidazole-4-sulfonamide]
PROTEASE % INHIB. (HIV-1 protease; DOSE 0.123 (unit not given)): 99.99% | PROTEASE % INHIB. (HIV-1 protease; DOSE 0.370 (unit not given)): 110.76% | PROTEASE % INHIB. (HIV-1 protease; DOSE 1.100 (unit not given)): 114.35% | PROTEASE % INHIB. (HIV-1 protease; DOSE 3.300 (unit not given)): 110.88% | PROTEASE % INHIB. (HIV-1 protease; DOSE 10.000 (unit not given)): 102.01% | PROTEASE % INHIB. (HIV-1 protease; DOSE 30.000 (unit not given)): 57.83% | pKi [1]: 9.40

CC(C)CC1(CC(C)C)CC(O)=C(C(c2cccc(NS(=O)(=O)c3ccc(C#N)cn3)c2)C(C)(C)C)C(=O)O1 (racemic) [Example 306, 5-Cyano-N-[3-(1-[5,6-dihydro-6,6-diisobutyl-4-hydroxy-2-oxo-2H-pyran-3-yl]-2,2-dimethylpropyl)-phenyl]-2-pyridinesulfonamide]
PROTEASE % INHIB. (HIV-1 protease; DOSE 0.123 (unit not given)): 71.79% | PROTEASE % INHIB. (HIV-1 protease; DOSE 0.370 (unit not given)): 82.71% | PROTEASE % INHIB. (HIV-1 protease; DOSE 1.100 (unit not given)): 89.3% | PROTEASE % INHIB. (HIV-1 protease; DOSE 3.300 (unit not given)): 97.29% | PROTEASE % INHIB. (HIV-1 protease; DOSE 10.000 (unit not given)): 82.59% | PROTEASE % INHIB. (HIV-1 protease; DOSE 30.000 (unit not given)): 53.43% | pKi [1]: 10.40

Cn1cnc(S(=O)(=O)Nc2cccc(C(C3=C(O)CC(CCc4ccccc4)(CCC(F)(F)F)OC3=O)C(C)(C)C)c2)c1 (single isomer, unassigned) [Example 270, N-[3-(R or S)-[1-[5,6-dihydro-4-hydroxy-2-oxo-6-(R or S)-(2-phenethyl)-6-(3,3,3-trifluoropropyl)-2H-pyran-3-yl]-2,2-dimethylpropyl]phenyl]-1-methyl-1H-imidazole-4-sulfonamide]
PROTEASE % INHIB. (HIV-1 protease; DOSE 0.123 (unit not given)): 75.26% | PROTEASE % INHIB. (HIV-1 protease; DOSE 0.370 (unit not given)): 85.62% | PROTEASE % INHIB. (HIV-1 protease; DOSE 1.100 (unit not given)): 93.45% | PROTEASE % INHIB. (HIV-1 protease; DOSE 3.300 (unit not given)): 96.62% | PROTEASE % INHIB. (HIV-1 protease; DOSE 10.000 (unit not given)): 94.57% | PROTEASE % INHIB. (HIV-1 protease; DOSE 30.000 (unit not given)): 82.67% | pKi [1]: 10.62

CCCC1(CCc2ccccc2)CC(O)=C(C(c2cccc(NS(=O)(=O)c3cc(C(F)(F)F)ccn3)c2)C(C)(C)C)C(=O)O1 (single isomer, unassigned) [Example 296, 4-Trifluoromethyl-N-[3(R or S)-[1-[5,6-dihydro-4-hydroxy-2-oxo-6(R or S)-(2-phenethyl)-6(R or S)-n-propyl-2H-pyran-3-yl]-2,2-dimethylpropyl]-phenyl]-2-pyridinesulfonamide]
pKi [1]: 10.38

CCC[C@@]1(CCc2ccccc2)CC(O)=C([C@@H](c2cccc(NS(=O)(=O)c3ccc(C#N)cn3)c2)C(C)(C)C)C(=O)O1 (single isomer, unassigned) [Example 302, 5-Cyano-N-[3(R or S)-(1-[5,6-dihydro-4-hydroxy-2-oxo-6(R or S)-(2-phenylethyl)-6-propyl-2H-pyran-3-yl]-2,2-dimethylpropyl)-phenyl]-2-pyridinesulfonamide]
pKi [1]: 8.73 and 8.44

CCC[C@@]1(CCc2ccccc2)CC(O)=C([C@@H](c2cccc(NS(=O)(=O)c3ccc(N)cn3)c2)C(C)(C)C)C(=O)O1 (single isomer, unassigned) [Example 312, 5-Amino-N-[3(R or S)-(1-[5,6-dihydro-4-hydroxy-2-oxo-6(R or S)-(2-phenylethyl)-6-propyl-2H-pyran-3-yl]-2,2-dimethylpropyl)-phenyl]-2-pyridinesulfonamide]
pKi [1]: 9.59

CCCC1(CCC)CC(O)=C(C(c2cccc(NS(=O)(=O)c3ccc(N)cn3)c2)C(C)(C)C)C(=O)O1 (single isomer, unassigned) [Example 320, 5-Amino-N-[3(R or S)-(1-[5,6-dihydro-6,6-dipropyl-4-hydroxy-2-oxo-2H-pyran-3-yl]-2,2-dimethyl-propyl)phenyl]-2-pyridine sulfonamide]
pKi [1]: 10.15 and 10.30 and 10.12

CCCC1(CCC)CC(O)=C(C(c2cccc(NS(=O)(=O)c3ccc(C#N)cn3)c2)C(C)(C)C)C(=O)O1 (single isomer, unassigned) [Example 322, 5-Cyano-N-[3(R or S)-(1-[5,6-dihydro-6,6-dipropyl-4-hydroxy-2-oxo-2H-pyran-3-yl]-2,2-dimethyl-propyl)phenyl]-2-pyridine-sulfonamide]
pKi [1]: 8.97 and 8.89

CCC(C1=C(O)CC(CCc2ccccc2)(CCc2ccccc2)OC1=O)c1cccc(NS(=O)(=O)c2cn(C)cn2)c1 (single isomer, unassigned) [Example 324, N-[3(R or S)-(1-[6,6-Bis(2-phenyl-ethyl)-5,6-dihydro-4-hydroxy-2-oxo-2H-pyran-3-yl]propyl)phenyl]-1-methyl-1H-imidazole-4-sulfonamide]
pKi [1]: 9.81

CCC(C1=C(O)CC(CCc2ccccc2)(CCc2ccccc2)OC1=O)c1cccc(NS(=O)(=O)c2ccc(C#N)cn2)c1 (single isomer, unassigned) [Example 326, N-[3(R or S)-(1-[6,6-Bis(2-phenyl-ethyl)-5,6-dihydro-4-hydroxy-2-oxo-2H-pyran-3-yl]propyl)phenyl]-5-cyano-2-pyridinesulfonamide]
pKi [1]: 10.54

Cn1cnc(S(=O)(=O)Nc2cccc(C(C3=C(O)CC(CCc4ccccc4)(CCc4ccccc4)OC3=O)C(C)(C)C)c2)c1 (single isomer, unassigned) [Example 357, N-[3-{1(R or S)-(4-Hydroxy-5,6-dihydro-2-oxo-6,6-bis(2-phenylethyl)-2H-pyran-3-yl)-2,2-dimethylpropyl}phenyl]-1-methyl-1H-imidazole-4-sulfonamide]
pKi [1]: 7.31

CC(C)(C)C(C1=C(O)CC(CCc2ccccc2)(CCc2ccccc2)OC1=O)c1cccc(NS(=O)(=O)c2ccc(C#N)cn2)c1 (single isomer, unassigned) [Example 359, N-[3-{1(R or S)-(4-Hydroxy-5,6-dihydro-2-oxo-6,6-bis(2-phenylethyl)-2H-pyran-3-yl)-2,2-dimethylpropyl}phenyl]-5-cyanopyridine-2-sulfonamide]
pKi [1]: 7.79

CCCC1(CCC)CC(O)=C(C(CC)c2cccc(NS(=O)(=O)c3ccc(N)cn3)c2)C(=O)O1 (single isomer, unassigned) [Example 363, N-[3-{1(R or S)-(4-Hydroxy-5,6-dihydro-2-oxo-6,6-dipropyl-2H-pyran-3-yl)-propyl}phenyl]-5-aminopyridine-2-sulfonamide]
pKi [1]: 10.08

CCC[C@@]1(CCc2ccc(F)cc2)CC(O)=C([C@H](CC)c2cccc(NS(=O)(=O)c3ccc(C#N)cn3)c2)C(=O)O1 (single isomer, unassigned) [Example 365, N-[3-{1(R or S)-(4-Hydroxy-5,6-dihydro-2-oxo-6(R or S)-(2-(4-fluorophenyl)ethyl)-6-propyl-2H-pyran-3-yl)propyl}phenyl]-5-cyanopyridine-2-sulfonamide]
pKi [1]: 10.64

CCC[C@@]1(CCc2ccc(F)cc2)CC(O)=C([C@H](CC)c2cccc(NS(=O)(=O)c3cn(C)cn3)c2)C(=O)O1 (single isomer, unassigned) [Example 368, N-[3-{1(R or S)-(4-Hydroxy-5,6-dihydro-2-oxo-6(R or S)-(2-(4-fluorophenyl)ethyl)-6-propyl-2H-pyran-3-yl)propyl}phenyl]-1-methyl-1H-imidazole-4-sulfonamide]
pKi [1]: 9.63

CCCC1(CCc2ccccc2)CC(O)=C([C@@H](CC)c2cccc(NS(=O)(=O)c3ccc(C(F)(F)F)cn3)c2)C(=O)O1 (stereo partly drawn) [Example 374, N-[3-[1-(S)-[5,6,-Dihydro-4-hydroxy-2-oxo-6-(2-phenylethyl)-6-propyl-2H-pyran-3-yl]propyl]phenyl]-5-(triflouromethyl)-2-pyridinesulfonamide]
PROTEASE % INHIB. ([1]; DOSE 0.123 (unit not given)): 78.97% | PROTEASE % INHIB. ([1]; DOSE 0.370 (unit not given)): 82.14% | PROTEASE % INHIB. ([1]; DOSE 1.100 (unit not given)): 84.98% | PROTEASE % INHIB. ([1]; DOSE 3.300 (unit not given)): 87.70% | PROTEASE % INHIB. ([1]; DOSE 10.000 (unit not given)): 95.25% | PROTEASE % INHIB. ([1]; DOSE 30.000 (unit not given)): 80.11% | pKi [1]: 10.51
